In ChEMBL document CHEMBL1681651, “A broad spectrum anticancer nucleoside with selective toxicity against human colon cells in vitro” (2011):

Key:
Type in all cases: functional
PC-3 = assay: Growth inhibition of human PC3 cells assessed as cell growth at 10 uM after 48 hrs by SRB assay; details: PC-3, 48 h, read-out: Activity
UACC-62 = assay: Growth inhibition of human UACC62 cells assessed as cell growth at 10 uM after 48 hrs by SRB assay; details: UACC-62, 48 h, read-out: Activity
[1] = Growth inhibition of human Hs 578T cells assessed as cell growth at 10 uM after 48 hrs by SRB assay; details: read-out: Activity
HOP-92 = assay: Growth inhibition of human HOP92 cells assessed as cell growth at 10 uM after 48 hrs by SRB assay; details: HOP-92, 48 h, read-out: Activity
HCT-116 [2] = assay: Growth inhibition of human HCT116 cells assessed as cell growth at 1 uM after 48 hrs by SRB assay; details: HCT-116, 48 h, read-out: Activity
SN12C = assay: Growth inhibition of human SN12C cells assessed as cell growth at 0.1 uM after 48 hrs by SRB assay; details: read-out: Activity
[3] = Growth inhibition of human […] cells assessed as cell growth at 1 uM after 48 hrs by SRB assay; details: read-out: Activity
HT-29 [4] = assay: Growth inhibition of human HT-29 cells assessed as cell growth at 1 uM after 48 hrs by SRB assay; details: HT-29, 48 h, read-out: Activity
KM12 [5] = assay: Growth inhibition of human KM12 cells after 48 hrs by […] growth inhibition assay; details: KM12, 48 h
Malme-3M = assay: Growth inhibition of human MALME-3M cells assessed as cell growth at 1 uM after 48 hrs by SRB assay; details: read-out: Activity
CCRF-CEM = assay: Growth inhibition of human CCRF-CEM cells after 48 hrs by […] growth inhibition assay
NCI-H522 [6] = assay: Growth inhibition of human NCI-H522 cells after 48 hrs by […] growth inhibition assay; details: NCI-H522, 48 h
UO-31 = assay: Growth inhibition of human UO31 cells assessed as cell growth at 100 uM after 48 hrs by SRB assay; details: UO-31, 48 h, read-out: Activity
OVCAR-3 = assay: Growth inhibition of human OVCAR3 cells after 48 hrs by […] growth inhibition assay; details: OVCAR-3, 48 h
SK-OV-3 [7] = assay: Growth inhibition of human SKOV3 cells assessed as cell growth at 100 uM after 48 hrs by SRB assay; details: SK-OV-3, 48 h, read-out: Activity
SF-295 = assay: Growth inhibition of human SF295 cells assessed as cell growth at 1 uM after 48 hrs by SRB assay; details: SF-295, 48 h, read-out: Activity
KM12 [8] = assay: Growth inhibition of human KM12 cells assessed as cell growth at 0.1 uM after 48 hrs by SRB assay; details: KM12, 48 h, read-out: Activity
ACHN = assay: Growth inhibition of human ACHN cells after 48 hrs by […] growth inhibition assay
OVCAR-4 = assay: Growth inhibition of human OVCAR4 cells assessed as cell growth at 0.1 uM after 48 hrs by SRB assay; details: OVCAR-4, 48 h, read-out: Activity
U-251 [9] = assay: Growth inhibition of human U251 cells assessed as cell growth at 1 mM after 48 hrs by SRB assay; details: U-251, 48 h, read-out: Activity
A498 = assay: Growth inhibition of human A498 cells assessed as cell growth at 1 uM after 48 hrs by SRB assay; details: A498, 48 h, read-out: Activity
COLO 205 = assay: Growth inhibition of human COLO205 cells assessed as cell growth at 0.1 uM after 48 hrs by SRB assay; details: COLO 205, 48 h, read-out: Activity
KM12 [10] = assay: Growth inhibition of human KM12 cells assessed as cell growth at 1 uM after 48 hrs by SRB assay; details: KM12, 48 h, read-out: Activity
NCI-H522 [11] = assay: Growth inhibition of human NCI-H522 cells assessed as cell growth at 100 uM after 48 hrs by SRB assay; details: NCI-H522, 48 h, read-out: Activity
SF-539 = assay: Growth inhibition of human SF539 cells assessed as cell growth at 0.1 uM after 48 hrs by SRB assay; details: SF-539, 48 h, read-out: Activity
HCT-116 [12] = assay: Growth inhibition of human HCT116 cells assessed as cell growth at 100 uM after 48 hrs by SRB assay; details: HCT-116, 48 h, read-out: Activity
CAKI-1 [13] = assay: Growth inhibition of human Caki1 cells assessed as cell growth at 1 mM after 48 hrs by SRB assay; details: CAKI-1, 48 h, read-out: Activity
SK-OV-3 [14] = assay: Growth inhibition of human SKOV3 cells assessed as cell growth at 0.1 uM after 48 hrs by SRB assay; details: SK-OV-3, 48 h, read-out: Activity
U-251 [15] = assay: Growth inhibition of human U251 cells assessed as cell growth at 100 uM after 48 hrs by SRB assay; details: U-251, 48 h, read-out: Activity
CAKI-1 [16] = assay: Growth inhibition of human Caki1 cells assessed as cell growth at 1 uM after 48 hrs by SRB assay; details: CAKI-1, 48 h, read-out: Activity
OVCAR-5 = assay: Growth inhibition of human OVCAR5 cells assessed as cell growth at 1 mM after 48 hrs by SRB assay; details: OVCAR-5, 48 h, read-out: Activity
[17] = Growth inhibition of human […] cells assessed as cell growth at 0.1 uM after 48 hrs by SRB assay; details: read-out: Activity
BT-549 = assay: Growth inhibition of human BT549 cells assessed as cell growth at 1 uM after 48 hrs by SRB assay; details: BT-549, 48 h, read-out: Activity
HT-29 [18] = assay: Growth inhibition of human HT-29 cells assessed as cell growth at 1 mM after 48 hrs by SRB assay; details: HT-29, 48 h, read-out: Activity
DU-145 = assay: Growth inhibition of human DU145 cells after 48 hrs by […] growth inhibition assay; details: DU-145, 48 h
[19] = read-out: LC50 (the source's name)
[20] = read-out: pLC50 (the source's name) (converted)

In the case of `CNC(=O)OC[C@H]1O[C@@H](n2cnc3c(NC(=O)Nc4ccccc4)ncnc32)[C@H](O[Si](C)(C)C(C)(C)C)[C@@H]1O[Si](C)(C)C(C)(C)C`, the growth at 10 µM (PC-3) is reported as 58.9%, the growth at 10 µM (UACC-62) is reported as 106% and the growth at 10 µM [1] is reported as 97.6%. It also gave a growth at 10 µM (HOP-92) of 54.7%.

In the case of `CCOC(=O)C[C@H]1[C@@H](O[Si](C)(C)C(C)(C)C)[C@H](n2cnc3c(NC(=O)Nc4ccccc4)ncnc32)O[C@@H]1CNC(=O)NC`, the growth at 1 µM (HCT-116 [2]) is reported as 113%, the growth at 0.1 µM (SN12C) is reported as 101% and the growth at 1 µM [3] is reported as 75%. For the same compound, the growth at 1 µM (HT-29 [4]) was 105%, the GI50 (KM12 [5]; read-out: GI50) was 3.95 µM and the CC50 (KM12 [5]; [19]) was > 100 µM. The TGI (KM12 [5]; read-out: TGI) was 20.9 µM, the GI50 (KM12 [5]; read-out: pGI50 (converted)) was 3.98 µM and the CC50 (KM12 [5]; [20]) was > 100 µM. For the same compound, the TGI (KM12 [5]; read-out: pTGI (converted)) was 20.9 µM, the growth at 1 µM (Malme-3M) was 95% and the GI50 (CCRF-CEM; read-out: GI50) was 6.69 µM. For the same compound, the LC50 (lethal concentration, 50% net cell kill) (CCRF-CEM; read-out: LC50) was > 100 µM, the TGI (CCRF-CEM; read-out: TGI) was 88.6 µM and the GI50 (CCRF-CEM; read-out: pGI50 (converted)) was 6.76 µM. For the same compound, the LC50 (lethal concentration, 50% net cell kill) (CCRF-CEM; read-out: pLC50 (converted)) was > 100 µM, the TGI (CCRF-CEM; read-out: pTGI (converted)) was 89.1 µM and the GI50 (NCI-H522 [6]; read-out: GI50) was 4.36 µM. For the same compound, the CC50 (NCI-H522 [6]; [19]) was > 100 µM, the TGI (NCI-H522 [6]; read-out: TGI) was 85.7 µM and the GI50 (NCI-H522 [6]; read-out: pGI50 (converted)) was 4.37 µM. For the same compound, the CC50 (NCI-H522 [6]; [20]) was > 100 µM, the TGI (NCI-H522 [6]; read-out: pTGI (converted)) was 85.1 µM and the growth at 100 µM (UO-31) was 61%. It also gave a GI50 (OVCAR-3; read-out: GI50) of 4.59 µM, a CC50 (OVCAR-3; [19]) of 91.3 µM and a TGI (OVCAR-3; read-out: TGI) of 17.2 µM. For the same compound, the GI50 (OVCAR-3; read-out: pGI50 (converted)) was 4.57 µM, the CC50 (OVCAR-3; [20]) was 91.2 µM and the TGI (OVCAR-3; read-out: pTGI (converted)) was 17 µM. It also gave a growth at 100 µM (SK-OV-3 [7]) of 66%, a growth at 1 µM (SF-295) of 91% and a growth at 0.1 µM (KM12 [8]) of 107%. For the same compound, the GI50 (ACHN; read-out: GI50) was 8.55 µM, the CC50 (ACHN; [19]) was > 100 µM and the TGI (ACHN; read-out: TGI) was > 100 µM. For the same compound, the GI50 (ACHN; read-out: pGI50 (converted)) was 8.51 µM, the CC50 (ACHN; [20]) was > 100 µM and the TGI (ACHN; read-out: pTGI) was > 100 µM. For the same compound, the growth at 0.1 µM (OVCAR-4) was 98%, the growth at 1000 µM (U-251 [9]) was -61% and the growth at 1 µM (A498) was 92%. The growth at 0.1 µM (COLO 205) was 102%, the growth at 1 µM (KM12 [10]) was 112% and the growth at 100 µM (NCI-H522 [11]) was 32%. The growth at 0.1 µM (SF-539) was 97%, the growth at 10 µM (PC-3) was 103% and the growth at 10 µM (UACC-62) was 97%. It also gave a growth at 100 µM (HCT-116 [12]) of 23%, a growth at 1000 µM (CAKI-1 [13]) of 7% and a growth at 0.1 µM (SK-OV-3 [14]) of 96%. The growth at 100 µM (U-251 [15]) was 28%, the growth at 10 µM [1] was 90% and the growth at 1 µM (CAKI-1 [16]) was 95%. For the same compound, the growth at 10 µM (HOP-92) was 12%, the growth at 1000 µM (OVCAR-5) was 27% and the growth at 0.1 µM [17] was 77%. The growth at 1 µM (BT-549) was 109%, the growth at 1000 µM (HT-29 [18]) was 3% and the CC50 (DU-145; [19]) was 12.5 µM. For the same compound, the GI50 (DU-145; read-out: pGI50 (converted)) was 5.01 µM, the CC50 (DU-145; [20]) was 77.6 µM and the TGI (DU-145; read-out: pTGI (converted)) was 19.5 µM.
